Consider four molecules from patent US20070197485A1, “Therapy and Use of Compounds in Therapy” (MAX-DELBRUECK-CENTRUM FUR MOLEKULARE MEDIZIN, priority 1999, published 2007).

In experiment [1] the test system is TNF production in whole blood of patients with cachexia. Nature of the experiment: Milenia whole blood assay, TNF production (in vitro addition of UDCA / BPi). It counts as cell-based, human. The protocol: (§1) We have tested the ability of ursodeoxycholic acid (UDCA, FALK Pharma GmbH) and BPi to inhibit LPS-mediated TNF production in whole blood of patients with cachexia. We studied 4 patients with cachexia due to liver cirrhosis. The patients had all weight loss >7.5% compared to their previous normal weight. […] All patients were studied twice on 2 subsequent days (day “−1” and day “0”), see FIG. 9 to 12.
Methods: Heparinized whole blood was diluted 1:10 with medium ±LPS (50 μg/ml), ±BPi (1 μg/ml), and ±UDCA (1 μg/ml-1 mg/ml) according to the manufacturer's recommendation (Milenia whole blood assay; DPC Biermann, Bad Nauheim, Germany) and incubated for 4 hours at 37° C. In the supernatant, we assessed concentrations of TNF and IL-6 using the semiautomated Immulite system (DPC-Biermann, Bad Nauheim, Germany).

Experiment [2] has as its system IL6 production in whole blood of patients with cachexia. Nature of the experiment: Milenia whole blood assay, IL6 production (in vitro addition of UDCA / BPi). It counts as cell-based, human.
From the text: as §1
[…] In the supernatant, we assessed concentrations of TNF and IL-6 using the semiautomated Immulite system (DPC-Biermann, Bad Nauheim, Germany).

The subject of experiment [3] is whole blood TNF production. Nature of the experiment: Whole blood TNF production after therapeutic application of UDCA. The experiment is classed as in vivo, human. Particulars: patient 4; after 2 days of UDCA treatment, 3 times 250 mg daily. The protocol:
(§2) We have tested the ability of the therapeutic application of ursodeoxycholic acid (UDCA, FALK Pharma GmbH) to lower plasma levels of TNF and IL6 and to lower spontaneous and LPS-stimulated whole blood cytokine production in patients with cachexia.
(§3) We studied in 2 patients with cachexia due to liver cirrhosis plasma cytokine levels after treatment with 3 times 250 mg daily UDCA (FALK Pharma GmbH). The patients had weight loss >7.5% compared to their previous normal weight. The patients were studied at baseline prior to the treatment on 2 subsequent days (day ”−1” and day “0”), and then they were restudied on day 1 (“1”), day 2 (“2”), and day 5 (“5”), see FIGS. 9 and 12.
(§4) Methods: Heparinized whole blood was diluted 1:10 with medium ±LPS (50 pg/ml), ±BPI (1 ug/ml), and ±UDCA (1 ug/ml-1 mg/ml) according to the manufacturer's recommendation (Milenia whole blood assay; DPC Biermann, Bad Nauheim, Germany) and incubated for 4 hours at 37° C. In the supernatant and in plasma, we assessed concentrations of TNF and IL-6 using the semiautomated Immulite system (DPC-Biermann, Bad Nauheim, Germany).

In experiment [4] the test system is whole blood IL6 production. The experiment can be described thus: Whole blood IL6 production after therapeutic application of UDCA. The experiment is classed as in vivo, human. As to conditions: patient 4; after 2 days of UDCA treatment, 3 times 250 mg daily. The protocol: as §2, §3, §4
Experiment [5] has as its system monocyte generated cytokine production in response to LPS. As to conditions: in vitro, in the concentrations used; cited from earlier work.
Experiment [6] concerns LPS-induced TNF-α release. The experiment can be described thus: LPS-induced TNF-α release with lipoproteins / LBP (FIG. 4 to 7). The experiment is classed as cell-based. Particulars: addition of LBP to a lipoprotein containing serum (FIG. 7).
The mark [7] stands for this setting: 100 ug/ml UDCA, whole blood of patients with cachexia due to liver cirrhosis, 4 hours at 37° C.
Setting [8] is: 1 mg/ml UDCA, whole blood of patients with cachexia due to liver cirrhosis diluted 1:10, 4 hours at 37° C, on average.
The mark [9] stands for this setting: BPi 1 ug/ml, in 6 of 8 experiments, or towards non-detectability, 2 cases stable, p<0.05.
The mark [10] stands for this setting: BPi 1 ug/ml, whole blood of patients with cachexia due to liver cirrhosis, no LPS.

Take `C[C@H](CCC(=O)O)[C@H]1CC[C@H]2[C@@H]3[C@@H](O)C[C@@H]4C[C@H](O)CC[C@]4(C)[C@H]3CC[C@]12C` [UDCA, ursodeoxycholic acid]: the figures for the “reduction of LPS-stimulated TNF production” value in experiment [1] (setting [7]) and in experiment [1] (setting [8]) were 42% and above 99%, respectively. Besides, the “reduction of LPS-stimulated IL6 production” value in experiment [2] (setting [7]) worked out at 13%; in experiment [2] (setting [8]) it was 97%. Also, the “LPS-stimulated TNF production lowered” value in experiment [3] came to 43.5%. In experiment [4], the “LPS-stimulated IL6 production lowered” value is reported as 39.6%.

Take `C[C@H](CCC(=O)O)[C@H]1CC[C@H]2[C@@H]3[C@H](O)C[C@@H]4C[C@H](O)CC[C@]4(C)[C@H]3CC[C@]12C` [chenodeoxycholic acid]: the “effect on monocyte generated cytokine production in response to LPS” value in experiment [5] is “less effective”.

B1: BPi: BPi, agent tested to inhibit LPS-mediated TNF production in whole blood; not spelled out in the text (protein, UniProt P17213 32-487, looked up)
Bactericidal …: VNPGVVVRISQKGLDYASQQGTAALQKELKRIKIPDYSDSFKIKHLGKGHYSFYSMDIREFQLPSSQISMVPNVGLKFSISNANIKISGKWKAQKRFLKMSGNFDLSIEGMSISADLKLGSNPTSGKPTITCSSCSSHINSVHVHISKSKVGWLIQLFHKKIESALRNKMNSQVCEKVTNSVSSELQPYFQTLPVMTKIDSVAGINYGLVAPPATTAETLDVQMKGEFYSENHHNPPPFAPPVMEFPAAHDRMVYLGLSDYFFNTAGLVYQEAGVLKMTLRDDMIPKESKFRLTTKFFGTFLPEVAKKFPNMKIQIHVSASTPPHLSVQPTGLTFYPAVDVQAFAVLPNSSLASLFLIGMHTTGSMEVSAESNRLVGELKLDRLLLELKHSNIGPFPVELLQDIMNYIVPILVLPRVNEKLQKGFPLPTPARVQLYNVVLQPHQNFLLFGADVVYK
Consider B1, for which, in experiment [1] (setting [9]), the “lowering of spontaneous TNF levels” value was “at least 5 pg/mi”. Besides, the “spontaneous production of TNF” value in experiment [1] (setting [10]) is “reduced significantly”. Also, the “lowering of spontaneous IL6 levels” value in experiment [2] (setting [9]) was “at least 5 pg/mi”. Moreover, the “spontaneous production of IL6” value in experiment [2] (setting [10]) is reported as “reduced significantly”.

B2: LBP: LPS binding protein (protein, UniProt P18428 26-481, looked up)
Lipopolysaccharide-binding …: ANPGLVARITDKGLQYAAQEGLLALQSELLRITLPDFTGDLRIPHVGRGRYEFHSLNIHSCELLHSALRPVPGQGLSLSISDSSIRVQGRWKVRKSFFKLQGSFDVSVKGISISVNLLLGSESSGRPTVTASSCSSDIADVEVDMSGDLGWLLNLFHNQIESKFQKVLESRICEMIQKSVSSDLQPYLQTLPVTTEIDSFADIDYSLVEAPRATAQMLEVMFKGEIFHRNHRSPVTLLAAVMSLPEEHNKMVYFAISDYVFNTASLVYHEEGYLNFSITDDMIPPDSNIRLTTKSFRPFVPRLARLYPNMNLELQGSVPSAPLLNFSPGNLSVDPYMEIDAFVLLPSSSKEPVFRLSVATNVSATLTFNTSKITGFLKPGKVKVELKESKVGLFNAELLEALLNYYILNTFYPKFNDKLAEGFPLPLLKRVQLYDLGLQIHKDFLFLGANVQYMRV
Take B2: in experiment [6], the “LPS-mediated TNF-α production” value is “reduced”.
